According to PMC10174618, “Monoterpenoid aryl hydrocarbon receptor allosteric antagonists protect against ultraviolet skin damage in female mice” (Nature Communications, 2023):

Experiments:
Assay in all cases: biochemical
Set-up in all cases: KINOMEscan scanMAX active site-directed competition binding assay, percent of control, 468 kinases
Conditions in all cases: competition binding, percent of control
PIM2 = PIM2 (Homo sapiens, UniProt Q9P1W9)
In short: (§1)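 Single-concentration screen (100 μM S-carvone) in a competition binding panel of 468 human kinases (KINOMEscan scanMAX); results given as percent of control, hit cutoff 35%.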

YANK1 = target: T1, YANK1 (Homo sapiens, UniProt Q8WU08)
T1 construct: gene STK32A
In short: as §1

[1] = target: T2, JAK2(JH1domain-catalytic) (Homo sapiens, UniProt O60674)
T2 construct: JH1domain-catalytic
In short: as §1

EGFR(L858R) = EGFR(L858R) (Homo sapiens, UniProt P00533, L858R)
Sequence of EGFR(L858R) (P00533 whole entry L858R): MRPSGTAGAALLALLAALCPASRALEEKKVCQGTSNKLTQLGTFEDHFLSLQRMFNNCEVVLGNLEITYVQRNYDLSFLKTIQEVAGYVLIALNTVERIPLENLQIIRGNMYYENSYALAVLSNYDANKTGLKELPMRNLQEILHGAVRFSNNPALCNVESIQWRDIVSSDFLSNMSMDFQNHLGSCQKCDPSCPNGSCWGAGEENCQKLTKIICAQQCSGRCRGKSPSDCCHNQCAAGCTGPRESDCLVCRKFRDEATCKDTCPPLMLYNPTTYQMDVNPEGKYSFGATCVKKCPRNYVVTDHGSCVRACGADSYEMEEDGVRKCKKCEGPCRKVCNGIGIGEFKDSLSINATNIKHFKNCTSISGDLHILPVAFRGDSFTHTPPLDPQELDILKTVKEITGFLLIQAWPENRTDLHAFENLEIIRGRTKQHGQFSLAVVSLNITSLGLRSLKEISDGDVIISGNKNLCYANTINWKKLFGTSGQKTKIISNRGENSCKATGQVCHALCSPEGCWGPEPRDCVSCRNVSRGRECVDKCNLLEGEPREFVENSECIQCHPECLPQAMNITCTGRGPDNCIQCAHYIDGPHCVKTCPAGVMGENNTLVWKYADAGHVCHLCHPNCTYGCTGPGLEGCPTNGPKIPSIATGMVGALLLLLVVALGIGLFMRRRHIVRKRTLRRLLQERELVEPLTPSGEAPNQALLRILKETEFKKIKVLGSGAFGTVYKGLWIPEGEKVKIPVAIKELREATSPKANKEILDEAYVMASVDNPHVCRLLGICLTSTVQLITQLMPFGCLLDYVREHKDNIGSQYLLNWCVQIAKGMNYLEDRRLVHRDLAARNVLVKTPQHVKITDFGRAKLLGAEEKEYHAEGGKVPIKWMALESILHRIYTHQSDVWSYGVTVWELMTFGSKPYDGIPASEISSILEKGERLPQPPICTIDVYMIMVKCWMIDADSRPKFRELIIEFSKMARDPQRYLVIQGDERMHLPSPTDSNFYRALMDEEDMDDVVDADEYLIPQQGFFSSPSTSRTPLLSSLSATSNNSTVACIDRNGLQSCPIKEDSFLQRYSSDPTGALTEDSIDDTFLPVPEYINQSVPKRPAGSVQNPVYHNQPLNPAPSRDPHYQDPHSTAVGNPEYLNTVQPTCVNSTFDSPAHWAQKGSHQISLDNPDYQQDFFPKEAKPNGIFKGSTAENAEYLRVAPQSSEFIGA
In short: as §1

VEGFR2 = target: T3, VEGFR2 (Homo sapiens, UniProt P35968)
T3 construct: gene KDR
In short: as §1

ERBB2 = ERBB2 (Homo sapiens, UniProt P04626)
In short: as §1

CSNK1G3 = CSNK1G3 (Homo sapiens, UniProt Q9Y6M4)
In short: as §1

PLK4 = PLK4 (Homo sapiens, UniProt O00444)
Sequence of PLK4 (O00444 whole entry): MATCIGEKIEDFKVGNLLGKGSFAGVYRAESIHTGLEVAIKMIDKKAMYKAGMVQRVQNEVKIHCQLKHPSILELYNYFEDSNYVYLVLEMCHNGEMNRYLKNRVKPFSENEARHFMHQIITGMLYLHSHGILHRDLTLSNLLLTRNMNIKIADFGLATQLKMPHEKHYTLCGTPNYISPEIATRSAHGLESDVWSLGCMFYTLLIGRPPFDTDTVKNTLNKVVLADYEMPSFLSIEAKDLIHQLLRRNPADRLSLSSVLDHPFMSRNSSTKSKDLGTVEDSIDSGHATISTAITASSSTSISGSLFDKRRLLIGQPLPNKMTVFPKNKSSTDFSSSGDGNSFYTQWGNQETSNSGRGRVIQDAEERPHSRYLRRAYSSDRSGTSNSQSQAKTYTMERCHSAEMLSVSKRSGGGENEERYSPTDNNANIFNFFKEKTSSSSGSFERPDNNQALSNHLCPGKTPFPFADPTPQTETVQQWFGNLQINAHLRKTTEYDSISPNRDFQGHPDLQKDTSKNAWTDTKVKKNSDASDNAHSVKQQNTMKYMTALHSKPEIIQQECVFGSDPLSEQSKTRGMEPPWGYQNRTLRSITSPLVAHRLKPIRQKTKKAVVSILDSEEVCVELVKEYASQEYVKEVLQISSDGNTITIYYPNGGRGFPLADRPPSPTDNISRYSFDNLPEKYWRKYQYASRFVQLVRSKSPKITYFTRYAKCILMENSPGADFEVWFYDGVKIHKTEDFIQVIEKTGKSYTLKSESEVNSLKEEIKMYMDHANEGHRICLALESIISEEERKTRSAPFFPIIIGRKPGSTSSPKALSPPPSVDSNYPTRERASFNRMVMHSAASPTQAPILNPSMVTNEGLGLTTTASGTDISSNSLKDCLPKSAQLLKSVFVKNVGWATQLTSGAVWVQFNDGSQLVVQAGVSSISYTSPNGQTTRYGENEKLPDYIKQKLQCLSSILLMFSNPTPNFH
In short: as §1

FGFR1 = FGFR1 (Homo sapiens, UniProt P11362)
Sequence of FGFR1 (P11362 whole entry): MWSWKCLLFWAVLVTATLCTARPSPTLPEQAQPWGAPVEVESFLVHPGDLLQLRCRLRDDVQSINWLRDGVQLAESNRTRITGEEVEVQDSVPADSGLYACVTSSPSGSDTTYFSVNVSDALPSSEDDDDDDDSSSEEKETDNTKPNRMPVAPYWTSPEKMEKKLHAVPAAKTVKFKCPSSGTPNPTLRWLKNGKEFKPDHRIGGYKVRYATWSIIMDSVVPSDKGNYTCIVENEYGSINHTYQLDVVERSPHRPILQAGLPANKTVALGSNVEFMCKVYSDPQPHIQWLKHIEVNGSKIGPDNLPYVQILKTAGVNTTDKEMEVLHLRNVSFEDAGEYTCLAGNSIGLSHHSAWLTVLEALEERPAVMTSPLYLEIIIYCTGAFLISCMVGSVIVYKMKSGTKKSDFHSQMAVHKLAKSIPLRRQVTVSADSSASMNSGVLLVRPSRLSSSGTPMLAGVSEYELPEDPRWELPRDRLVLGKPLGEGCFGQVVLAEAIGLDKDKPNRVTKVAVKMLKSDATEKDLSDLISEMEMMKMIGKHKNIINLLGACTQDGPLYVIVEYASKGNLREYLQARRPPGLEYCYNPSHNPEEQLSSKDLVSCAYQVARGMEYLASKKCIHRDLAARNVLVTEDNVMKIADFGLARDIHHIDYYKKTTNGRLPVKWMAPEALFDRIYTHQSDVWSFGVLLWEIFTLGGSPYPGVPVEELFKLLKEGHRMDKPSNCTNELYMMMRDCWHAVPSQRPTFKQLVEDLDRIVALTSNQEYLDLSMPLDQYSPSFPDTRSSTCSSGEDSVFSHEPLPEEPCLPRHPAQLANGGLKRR
In short: as §1

GRK4 = GRK4 (Homo sapiens, UniProt P32298)
Sequence of GRK4 (P32298 whole entry): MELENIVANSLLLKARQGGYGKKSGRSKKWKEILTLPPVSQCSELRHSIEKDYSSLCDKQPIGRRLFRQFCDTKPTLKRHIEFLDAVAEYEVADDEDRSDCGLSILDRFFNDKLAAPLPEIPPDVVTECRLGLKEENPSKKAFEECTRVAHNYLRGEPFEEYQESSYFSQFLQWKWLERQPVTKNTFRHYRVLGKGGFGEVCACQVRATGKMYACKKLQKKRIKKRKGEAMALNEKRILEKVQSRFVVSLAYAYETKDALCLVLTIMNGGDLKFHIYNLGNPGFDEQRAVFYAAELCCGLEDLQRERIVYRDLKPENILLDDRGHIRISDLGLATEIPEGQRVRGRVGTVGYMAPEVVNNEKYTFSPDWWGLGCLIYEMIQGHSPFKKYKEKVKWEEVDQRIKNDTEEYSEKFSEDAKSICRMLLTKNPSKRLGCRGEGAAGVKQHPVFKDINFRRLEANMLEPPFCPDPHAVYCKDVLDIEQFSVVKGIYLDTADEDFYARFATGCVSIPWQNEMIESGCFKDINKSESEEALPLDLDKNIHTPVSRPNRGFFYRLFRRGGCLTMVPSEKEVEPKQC
In short: as §1

RAF1 = RAF1 (Homo sapiens, UniProt P04049)
Sequence of RAF1 (P04049 whole entry): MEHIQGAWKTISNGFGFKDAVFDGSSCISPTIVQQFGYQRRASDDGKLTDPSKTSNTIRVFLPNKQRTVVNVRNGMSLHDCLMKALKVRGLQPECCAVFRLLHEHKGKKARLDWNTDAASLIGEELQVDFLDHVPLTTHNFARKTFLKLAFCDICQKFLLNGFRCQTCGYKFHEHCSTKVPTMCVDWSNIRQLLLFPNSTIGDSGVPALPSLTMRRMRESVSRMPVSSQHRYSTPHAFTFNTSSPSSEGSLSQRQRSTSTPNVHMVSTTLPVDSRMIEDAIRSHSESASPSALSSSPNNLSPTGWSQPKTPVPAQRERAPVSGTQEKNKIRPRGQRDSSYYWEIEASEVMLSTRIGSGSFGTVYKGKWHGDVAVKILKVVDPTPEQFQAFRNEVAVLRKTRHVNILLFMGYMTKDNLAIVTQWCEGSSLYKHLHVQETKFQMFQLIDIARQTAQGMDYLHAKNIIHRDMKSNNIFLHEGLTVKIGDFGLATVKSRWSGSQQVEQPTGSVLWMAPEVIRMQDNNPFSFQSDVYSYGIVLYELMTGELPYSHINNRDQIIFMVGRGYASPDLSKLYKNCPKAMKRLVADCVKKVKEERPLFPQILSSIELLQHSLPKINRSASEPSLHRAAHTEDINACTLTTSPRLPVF
In short: as §1

CDK11 = target: T4, CDK11 (Homo sapiens, UniProt Q9BWU1)
T4 construct: gene CDK19
T4 sequence (Q9BWU1 whole entry): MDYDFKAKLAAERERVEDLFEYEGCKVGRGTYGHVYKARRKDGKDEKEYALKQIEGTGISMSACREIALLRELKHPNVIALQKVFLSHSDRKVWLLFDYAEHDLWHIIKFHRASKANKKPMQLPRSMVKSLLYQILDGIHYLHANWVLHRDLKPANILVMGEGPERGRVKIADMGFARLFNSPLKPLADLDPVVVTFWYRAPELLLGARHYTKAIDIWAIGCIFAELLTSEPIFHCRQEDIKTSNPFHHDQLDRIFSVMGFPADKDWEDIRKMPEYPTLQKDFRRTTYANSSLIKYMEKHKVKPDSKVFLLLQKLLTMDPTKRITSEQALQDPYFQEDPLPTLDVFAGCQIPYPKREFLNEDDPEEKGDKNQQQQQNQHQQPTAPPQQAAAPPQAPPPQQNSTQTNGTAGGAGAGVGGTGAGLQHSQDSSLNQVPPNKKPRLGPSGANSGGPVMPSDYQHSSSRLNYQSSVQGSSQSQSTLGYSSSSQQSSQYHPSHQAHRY
In short: as §1

TNNI3K = TNNI3K (Homo sapiens, UniProt Q59H18)
In short: as §1

PRP4 = target: T5, PRP4 (Homo sapiens, UniProt Q13523)
T5 construct: gene PRPF4B
In short: as §1

Sequence of PIM2 (Q9P1W9 whole entry): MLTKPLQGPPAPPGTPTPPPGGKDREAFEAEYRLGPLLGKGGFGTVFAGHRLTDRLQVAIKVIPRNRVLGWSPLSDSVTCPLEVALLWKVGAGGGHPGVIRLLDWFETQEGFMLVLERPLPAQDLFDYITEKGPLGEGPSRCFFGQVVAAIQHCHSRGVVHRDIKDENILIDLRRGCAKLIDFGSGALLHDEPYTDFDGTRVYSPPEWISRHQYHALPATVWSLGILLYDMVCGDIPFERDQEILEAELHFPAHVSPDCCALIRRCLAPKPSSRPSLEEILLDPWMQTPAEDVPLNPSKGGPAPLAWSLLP

SMILES: C=C(C)[C@H]1CC=C(C)C(=O)C1 [S-carvone]
- remaining binding at 100 µM (PIM2): 86%
- remaining binding at 100 µM (YANK1): 78%
- remaining binding at 100 µM [1]: 78%
- remaining binding at 100 µM (EGFR(L858R)): 85%
- remaining binding at 100 µM (VEGFR2): 60%
- remaining binding at 100 µM (ERBB2): 83%
- remaining binding at 100 µM (CSNK1G3): 100%
- remaining binding at 100 µM (PLK4): 76%
- remaining binding at 100 µM (FGFR1): 92%
- remaining binding at 100 µM (GRK4): 66%
- remaining binding at 100 µM (RAF1): 99%
- remaining binding at 100 µM (CDK11): 98%
- remaining binding at 100 µM (TNNI3K): 93%
- remaining binding at 100 µM (PRP4): 62%
